“And” between values parts separate entries of the source, which are not always exact repeats. Equal values may be shown once.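 Cells were grown in 96-well plates and exposed to each compound for 48 hours at five concentrations; endpoints were interpolated linearly between bracketing concentrations, or set to the highest concentration if not reached. Abbreviation: GI50, concentration required for 50% inhibition of growth. TGI marks complete inhibition of growth.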
Columns and labels:
Assay in all cases: growth of human tumour cells (NCI), 48 h
ACHN renal = tested on: ACHN renal
CCRF-CEM leukemia = tested on: CCRF-CEM leukemia
EKVX NSCLC = tested on: EKVX NSCLC
SK-MEL-28 melanoma = tested on: SK-MEL-28 melanoma
SK-OV-3 ovarian = tested on: SK-OV-3 ovarian
SNB-19 CNS = tested on: SNB-19 CNS
SNB-75 CNS = tested on: SNB-75 CNS
UO-31 renal = tested on: UO-31 renal
HL-60(TB) leukemia = tested on: HL-60(TB) leukemia
OVCAR-4 ovarian = tested on: OVCAR-4 ovarian

SMILES	TGI (ACHN renal)	TGI (CCRF-CEM leukemia) [µM]	TGI (EKVX NSCLC) [µM]	TGI (SK-MEL-28 melanoma)	TGI (SK-OV-3 ovarian) [µM]	TGI (SNB-19 CNS) [µM]	TGI (SNB-75 CNS)	TGI (UO-31 renal)	GI50 (ACHN renal)	GI50 (CCRF-CEM leukemia)	GI50 (HL-60(TB) leukemia)	TGI (HL-60(TB) leukemia)	GI50 (OVCAR-4 ovarian)	TGI (OVCAR-4 ovarian) [µM]	GI50 (SK-MEL-28 melanoma)	GI50 (SK-OV-3 ovarian)	GI50 (SNB-19 CNS)	GI50 (SNB-75 CNS)	GI50 (UO-31 renal)	GI50 (EKVX NSCLC) [µM]
C/C=C(/CCCCNCCCC)[Si](C)(C)C	26.9 µM	73.4	25.8	29.4 µM	33.6	31.8	27 µM	31.4 µM	–	–	–	–	–	–	–	–	–	–	–	–
CCCCCc1c(C)[nH]c(/C=C2\N=C(c3ccc[nH]3)C=C2Oc2ccc(Cl)cc2)c1C	1.22 µM and 2.11 µM	> 100	–	1.53 µM and 0.943 µM	17.6	4.33	0.553 µM and 0.431 µM	0.32 µM and 0.222 µM	0.196 µM and 0.0397 µM	0.0392 µM and < 0.01 µM	0.213 µM and 0.0637 µM	1.48 µM and 1.01 µM	0.0527 µM and 0.0228 µM	> 100	0.169 µM and 0.0742 µM	0.308 µM and 0.277 µM	0.268 µM and 0.173 µM	0.112 µM and 0.0375 µM	0.142 µM and 0.0599 µM	–
COc1cc(Oc2c(O)c(C)c(OC)c(C(C)=O)c2O)c(C(C)=O)c(O)c1C	> 100 µM	> 100	–	> 100 µM	> 100	> 100	> 100 µM	> 100 µM	–	–	–	–	–	> 100	–	–	–	–	–	–
FC(F)(F)c1ccc2nc(Nc3ccc(Cl)c(Cl)c3)c(-c3ccccc3)nc2c1	> 100 µM	> 100	> 100	> 100 µM	–	> 100	–	> 100 µM	–	–	–	> 100 µM	–	–	–	–	–	–	–	–
C[C@H](CS(C)(=O)=O)Nc1ncc2cc(Oc3ccc(F)cc3F)c(=O)n(C)c2n1	> 25 µM	> 25	–	> 25 µM	> 25	> 25	> 25 µM	> 25 µM	> 25 µM	> 25 µM	> 25 µM	> 25 µM	> 25 µM	> 25	> 25 µM	> 25 µM	> 25 µM	> 25 µM	> 25 µM	–
C=C(C)[C@@H]1CC[C@@]2(C)[C@H]1[C@H]1CCC3[C@@]4(C)CC[C@H](O)C(C)(C)[C@@H]4CC[C@@]3(C)[C@]1(C)C[C@@H]2O (stereo not given in full)	> 100 µM	> 100	> 100	> 100 µM	–	> 100	> 100 µM	–	–	–	–	> 100 µM	–	–	–	–	–	–	–	–
Cc1cn2c(/C=N/N/C(N)=N\N)c(-c3ccc(Cl)c([N+](=O)[O-])c3)nc2s1	1.63 µM	–	15.6	–	2.78	18.6	–	22.5 µM	0.928 µM	–	25.2 µM	> 50 µM	–	–	–	1.29 µM	2.05 µM	–	9.45 µM	3.99
O=C(Nc1cc(Cl)c(Cl)cc1Cl)C(=O)C(C(=O)c1ccc(Cl)c(Cl)c1)C1OC(=O)c2ccccc21 (stereo not given)	31.7 µM	49.5	58	–	> 100	49.8	–	30.6 µM	–	–	–	52 µM	–	77.8	–	–	–	–	–	–
O=C1CC2C(=O)N(Cc3ccccc3)C1C(S(=O)(=O)c1ccccc1)C2S(=O)(=O)c1ccccc1 (stereo not given)	3.24 µM	3.46	–	3.72 µM	31.5	–	21.2 µM	22.6 µM	–	–	–	3.51 µM	–	4.74	–	–	–	–	–	–
CCOC(=O)/C(C#N)=C1\N[C@H](C(=O)OCC)CO1	> 100 µM	> 100	> 100	> 100 µM	–	> 100	–	> 100 µM	–	–	–	> 100 µM	–	> 100	–	–	–	–	–	–
COC(=O)[C@]1(C)CCC[C@@]2(C)C1CCC1=C[C@@]3(C(C)C)CC[C@]12OO3 (stereo not given in full)	> 100 µM	45.1	> 100	–	> 100	> 100	–	40.2 µM	–	–	–	42 µM	–	> 100	–	–	–	–	–	–
Nc1nc(Nc2cccc(F)c2)nc2ccccc12	76.8 µM	> 100	–	29 µM	> 100	> 100	50.4 µM	61.2 µM	20.4 µM	24.6 µM	25.5 µM	68.4 µM	22.9 µM	> 100	15 µM	35.3 µM	35.3 µM	15.8 µM	19 µM	–
CC1=CC(=O)C(C(C)=Nc2ccccc2Cl)C(=O)O1 (stereo not given)	> 100 µM	> 100	> 100	> 100 µM	> 100	> 100	–	> 100 µM	> 100 µM	> 100 µM	> 100 µM	> 100 µM	–	–	> 100 µM	> 100 µM	> 100 µM	–	> 100 µM	> 100
CC1CC2(CC[C@@H]1O)OCCO2 (stereo not given in full)	–	> 100	> 100	–	> 100	> 100	–	> 100 µM	–	–	–	> 100 µM	–	> 100	–	–	–	–	–	–
CC(=O)C1=C([O-])C(C)OC1=O.CC(=O)C1=C([O-])C(C)OC1=O.[NH-]C1CCCC[C@H]1[NH-].[Pt+4] (stereo not given)	> 100 µM	–	> 100	> 100 µM	> 100	> 100	–	> 100 µM	73.2 µM	–	16.1 µM	> 100 µM	88.9 µM	> 100	43.8 µM	> 100 µM	> 100 µM	–	> 100 µM	> 100
O=[N+]([O-])c1nccn1CC1OC(n2ccnc2[N+](=O)[O-])C(O)C(O)C1O (stereo not given)	> 100 µM	> 100	> 100	> 100 µM	–	> 100	> 100 µM	> 100 µM	–	–	–	> 100 µM	–	–	–	–	–	–	–	–
COc1ccccc1-c1c(C)nn2c(NCc3ccccn3)cc(C)nc12	> 50 µM	> 50	–	> 50 µM	> 50	> 50	> 50 µM	> 50 µM	3.51 µM	6.89 µM	20.4 µM	> 50 µM	2.32 µM	> 50	> 36.9 µM	> 50 µM	> 50 µM	> 50 µM	10.2 µM	–
C/C1=C\CC[C@@](C)(O)[C@@H]2CC3[C@@H](OC(=O)C34CC4)[C@@H](O2)[C@H](C)CCC1 (stereo not given in full)	35.1 µM	> 100	–	> 100 µM	> 100	> 100	> 100 µM	29.9 µM	16.9 µM	3.95 µM	42.4 µM	> 100 µM	38 µM	> 100	61.7 µM	55 µM	58.6 µM	41.9 µM	15.3 µM	–
O=C(Nc1ccc2c(c1)oc(=O)c1ccccc12)C(Cl)Cl	> 100 µM	> 100	> 100	> 100 µM	–	> 100	> 100 µM	> 100 µM	–	–	–	25.5 µM	–	–	–	–	–	–	–	–
CCCCCCCCCCCCC(=O)[O-].CCCCCCCCCCCCC(=O)[O-].CCCCCCCCCCCCC(=O)[O-].CCCCCCCCCCCCC(=O)[O-].[Mo+2].[Mo+2]	30.4 µM	10	35.8	65.7 µM	59.9	> 100	–	41.9 µM	16 µM	2.29 µM	2.82 µM	7.8 µM	10.2 µM	24.2	21.4 µM	15.1 µM	26.5 µM	–	14.7 µM	19.7
CC(=O)OC1C2(CC3N4C(=O)C5(CO)SSC4(CC31O)C(=O)N5C)OC(C)C(C)(C)C2=O (stereo not given)	0.0225 µM	0.175	0.709	0.0696 µM	0.454	0.0666	–	1.05 µM	< 0.01 µM	–	0.0379 µM	–	< 0.0114 µM	0.0345	0.0141 µM	0.0745 µM	0.0184 µM	–	0.0952 µM	0.124
Nc1nc(OCc2ccccc2)nc2[nH]ncc12	> 100 µM	–	> 100	35.2 µM	49.8	83.2	–	> 100 µM	25.5 µM	–	–	–	17.5 µM	63.4	17 µM	18.6 µM	26.3 µM	–	20 µM	38.6
CC(C)=CCC/C(C)=C/Cc1c(O)ccc2c1[nH]c1cc(O)c(C)cc12	> 25 µM	> 25	–	> 25 µM	> 25	> 25	–	> 25 µM	–	–	–	> 25 µM	–	12.1	–	–	–	–	–	–
COC(=O)[C@@H]1CCCN1C(=O)[C@@H]1CCCN1C(=O)[C@@H](Cc1c[nH]c2ccccc12)NC(=S)Nc1cc(C(F)(F)F)cc(C(F)(F)F)c1	> 100 µM	> 100	–	4.54 µM	> 100	> 100	> 100 µM	> 100 µM	4.28 µM	3.39 µM	4.26 µM	> 100 µM	4.32 µM	> 100	1.95 µM	47.2 µM	16.2 µM	1.91 µM	5.44 µM	–
Fc1ccc(Nc2nc(NCCNc3ccnc4cc(Cl)ccc34)nc(N3CCOCC3)n2)cc1	20.2 µM	16.3	–	3.25 µM	24.6	25.9	16.2 µM	16.5 µM	7.06 µM	0.457 µM	1.8 µM	4.89 µM	10.7 µM	23.1	1.83 µM	11.9 µM	12.4 µM	3.13 µM	3.52 µM	–
CC1=NN(C(=O)c2ccc(Cl)cc2)C(=O)/C1=C/c1cccc([N+](=O)[O-])c1	> 100 µM	> 100	> 100	> 100 µM	> 100	> 100	–	> 100 µM	–	–	–	> 100 µM	–	> 100	–	–	–	–	–	–

Reference: PubChem BioAssay (NCI)
